Test results reported in patent publication US11465965B2, “Double-headed protease inhibitor” (UBE INDUSTRIES, LTD., priority 2017, dated 2022).
Counter-ions that a name gives are not always drawn. Like-named read-outs stand apart in the source and are kept apart here.

Tests used:
HFD-fed mouse = assay: Fecal protein concentration-increasing test by single administration using HFD-fed mouse; type: in vivo; settings: 24 h, HFD-fed mice, vs vehicle group, read-out: Ratio for an increase of protein concentration in feces; for response vs control in vivo at 50 mg/kg: single oral dose 50 mg/kg
Text: (Test Example 3): Fecal Protein Concentration-Increasing Test by Single Administration Using HFD-Fed Mouse
High fat diet-fed (HFD-fed) mice (D-12492 diet, male, ICR, 6 week old) were orally administered with a 0.5 W/V % methylcellulose suspension comprising each test compound (Compound administration group, 4 or 5 mice/group) or a 0.5 W/V % methylcellulose suspension (Compound non-administration group (Vehicle group), 5, 6, or 7 mice/group), and whole feces of the day were collected. Dried feces were dissolved into a 0.5N aqueous sodium hydroxide solution, followed by centrifugation at 3500 rpm. Then each protein concentration in the resulting supernatant was determined (Lowry method), and the ratio for an increase of protein concentration in feces was calculated by the following equation using the protein concentration in feces contained in 1 g of feces (mg/g feces). Ratio for an increase of protein concentration in feces−(average protein concentration in feces of Compound administration group)[…](average protein concentration in feces of Compound non-administration group)

DIO mouse = assay: Anti-obesity effect test using DIO mouse; type: in vivo; settings: 336 h, DIO mice, vs vehicle group, read-out: Weight loss rate; for inhibition in vivo at 50 mg/kg: oral 50 mg/kg once daily for 2 weeks
How it was run: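 Male C57BL-DIO mice on D-12492 diet, 26 to 28-week old, 5 or 6 per group; compound dosed orally once daily for 2 weeks as 0.5 W/V % methylcellulose suspension, vehicle group on suspension alone. Weight loss rate (%) = (1 − mean final-day weight of treated group / mean final-day weight of vehicle group) × 100.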

[1] = Rat pharmacokinetic (PK) test (plasma concentration after oral administration); settings: male, SD
Procedure: (§1) Each test compound was suspended in a 0.5 W/V % methylcellulose 400 solution to prepare a suspension, and the resulting suspension was orally administered to a male SD rat of 7 to 8-week old (weight: 180 to 250 g). After 0.25, 0.5, 1, 2, 4, 8, and 24 hour(s) of the administration of each test compound, blood (EDTA-added blood) was collected from jugular vein under isoflurane inhalation anesthesia. […] To the resulting blood plasma was added acetonitrile, a mixed solvent of acetonitrile and water (1:1 (V/V)), or a mixed solvent of acetonitrile and 0.1 M hydrochloric acid (1:1 (V/V)), then the resulting mixture was mixed at 750 rpm for 3 minutes in a shaker, and subjected to centrifugal separation at 3700 rpm for 2 minutes in a centrifuge to remove proteins. The resulting sample was subjected to LC (liquid chromatography)/MS (mass spectrometry) measurement under the following measurement conditions.
(§2) Each compound concentration in blood plasma at each time of blood collection was calculated according to the internal standard method, and, area under the plasma concentration vs. time curve (AUCall (Area Under Curve)) was calculated according to the trapezoidal method.
(§3) The LC and MS systems used in the present test are as follows.
(§4) LC: LC20 or LC30 HPLC system manufactured by Shimadzu Corporation
(§5) Column: Phenomenex Kinetex C18 (50×2.1 mm, 2.6 μm)
Column temperature: 40° C.
(§6) Mobile phase A: aqueous solution with 0.1% formic acid, Mobile phase B: 50% acetonitrile/methanol solution with 0.1% formic acid

[2] = molecular target: T1, Human recombinant enteropeptidase (Homo sapiens, UniProt P98073); assay: Human enteropeptidase inhibition test; type: biochemical; settings: read-out: Inhibition rate (enteropeptidase); for inhibition at 0.001 µM: compound concentration 1 nM
T1 construct: purchased BIO Vision Inc. 7529-50
T1 sequence (P98073 whole entry): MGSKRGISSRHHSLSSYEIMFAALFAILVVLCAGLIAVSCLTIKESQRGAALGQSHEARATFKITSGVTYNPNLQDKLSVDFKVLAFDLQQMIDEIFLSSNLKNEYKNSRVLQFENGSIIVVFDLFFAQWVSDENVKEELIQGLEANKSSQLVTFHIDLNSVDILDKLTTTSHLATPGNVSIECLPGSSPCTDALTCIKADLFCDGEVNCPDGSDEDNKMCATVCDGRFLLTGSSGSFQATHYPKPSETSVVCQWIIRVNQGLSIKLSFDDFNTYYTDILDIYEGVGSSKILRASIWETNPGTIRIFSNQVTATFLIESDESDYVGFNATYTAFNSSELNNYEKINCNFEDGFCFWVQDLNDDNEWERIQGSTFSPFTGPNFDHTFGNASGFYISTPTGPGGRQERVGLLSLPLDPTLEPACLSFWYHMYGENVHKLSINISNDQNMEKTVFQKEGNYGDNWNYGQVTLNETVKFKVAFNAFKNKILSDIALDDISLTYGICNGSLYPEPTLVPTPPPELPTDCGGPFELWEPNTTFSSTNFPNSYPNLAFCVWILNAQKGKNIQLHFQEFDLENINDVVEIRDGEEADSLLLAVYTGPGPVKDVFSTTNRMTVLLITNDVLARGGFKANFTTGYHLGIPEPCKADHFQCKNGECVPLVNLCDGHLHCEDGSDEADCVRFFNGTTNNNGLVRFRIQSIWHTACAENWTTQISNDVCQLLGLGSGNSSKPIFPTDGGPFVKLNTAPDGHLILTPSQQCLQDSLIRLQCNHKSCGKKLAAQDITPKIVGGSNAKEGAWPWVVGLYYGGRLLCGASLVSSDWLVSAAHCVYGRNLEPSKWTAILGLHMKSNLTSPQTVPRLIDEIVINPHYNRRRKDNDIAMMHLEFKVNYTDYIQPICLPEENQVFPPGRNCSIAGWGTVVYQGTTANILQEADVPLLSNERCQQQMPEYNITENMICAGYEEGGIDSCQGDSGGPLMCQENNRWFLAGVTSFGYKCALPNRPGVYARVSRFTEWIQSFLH
How it was run: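 Recombinant human enteropeptidase in 50 mM tricine pH 8.0, 0.01% Tween 20, 10 mM CaCl2 cleaving 1.5 μM 5FAM/CPQ2-quenched peptide substrate (stock solution concentration). Fluorescence (ex 485/em 535 nm) read 20 min after enzyme addition; % inhibition versus no-compound and no-enzyme controls.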

[3] = molecular target: T2, Human recombinant trypsin (Homo sapiens, UniProt P07477); assay: Human trypsin inhibition test; type: biochemical; settings: 20 minutes after reaction start, read-out: Inhibition rate (trypsin); for inhibition at 0.001 µM: compound concentration 1 nM; for inhibition at 0.01 µM: compound concentration 10 nM; for inhibition at 0.1 µM: compound concentration 100 nM
T2 construct: purchased Wako Pure Chemical Industries, Ltd. 206-17171
How it was run: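 Trypsin diluted to 10 ng/mL in 0.1 M Tris-HCl pH8.0, 0.15 M NaCl, 10 mM CaCl2, 0.05% Brij35; substrate solution 40 μM Boc-Phe-Ser-Arg-MCA, compounds in 1% DMSO buffer. Fluorescence (ex 355/em 460 nm) read 20 min after enzyme addition; % inhibition versus no-compound and no-enzyme controls.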

in vivo = settings: male, SD, rat, po, 10 mg/kg
Procedure: as §1, §2, §3, §4, §5
Column temperature: 40° C.
as §6

[4] = 20 minutes after reaction start
[5] = compound concentration 10 nM, 20 minutes after reaction start
[6] = compound concentration 100 nM, 20 minutes after reaction start

Row | SMILES | inhibition at 0.001 µM [2, 4] [%] | inhibition at 0.01 µM [2, 5] [%] | inhibition at 0.1 µM [2, 6] [%] | inhibition at 0.001 µM [3] [%] | inhibition at 0.01 µM [3] [%] | inhibition at 0.1 µM [3] [%] | AUC ([1]; 10 mg/kg) [ng·h/mL] | response vs control in vivo at 50 mg/kg (HFD-fed mouse) [%] | inhibition in vivo at 50 mg/kg (DIO mouse) [%] | also measured
1 | N=C(N)Nc1ccc(C(=O)Oc2ccc(CNS(=O)(=O)N(CCOCCN([C@@H](CC(=O)O)C(=O)O)S(=O)(=O)NCc3ccc(OC(=O)c4ccc(NC(=N)N)cc4)cc3)[C@@H](CC(=O)O)C(=O)O)cc2)cc1 [1-(b), (2S,2′S)-2,2′-((oxybis(ethane-2,1-diyl))bis((N-(4-((4-guanidinobenzoyl)oxy)benzyl)sulfamoyl)azanediyl))disuccinic acid] | ≥ 50 | ≥ 50 | ≥ 50 | ≥ 50 | ≥ 50 | ≥ 50 | – | – | – | response vs control in vivo at 87 mg/kg (HFD-fed mouse; single oral dose 87 mg/kg): ≥ 130%; inhibition in vivo at 30 mg/kg (DIO mouse; oral 30 mg/kg once daily for 2 weeks): ≥ 4%; AUC ([1]; 100 mg/kg): ≤ 100 ng·h/mL
2 | N=C(N)Nc1ccc(C(=O)Oc2ccc(CNS(=O)(=O)N(CCOCCOCCOCCOCCN([C@@H](CC(=O)O)C(=O)O)S(=O)(=O)NCc3ccc(OC(=O)c4ccc(NC(=N)N)cc4)cc3)[C@@H](CC(=O)O)C(=O)O)cc2)cc1 [4-(b), (2S,19S)-3,18-bis(N-(4-((4-guanidinobenzoyl)oxy)benzyl)sulfamoyl)-6,9,12,15-tetraoxa-3,18-diazaicosane-1,2,19,20-tetracarboxylic acid trifluoroacetate] | – | ≥ 50 | ≥ 50 | – | ≥ 50 | ≥ 50 | ≤ 100 | – | – | response vs control in vivo at 100 mg/kg (HFD-fed mouse; single oral dose 100 mg/kg): ≥ 130%; inhibition in vivo at 86 mg/kg (DIO mouse; oral 86 mg/kg once daily for 2 weeks): ≥ 4%
3 | N=C(N)Nc1ccc(C(=O)Oc2ccc(CNS(=O)(=O)N(CCCN([C@@H](CC(=O)O)C(=O)O)S(=O)(=O)NCc3ccc(OC(=O)c4ccc(NC(=N)N)cc4)cc3)[C@@H](CC(=O)O)C(=O)O)cc2)cc1 [7-(b), (2S,2′)-2,2′-propane-1,3-diylbis((N-(4-((4-guanidinobenzoyl)oxy)benzyl)sulfamoyl)azanediyl)disuccinic acid] | ≥ 50 | ≥ 50 | ≥ 50 | ≥ 50 | ≥ 50 | ≥ 50 | ≤ 100 | – | – | response vs control in vivo at 30 mg/kg (HFD-fed mouse; single oral dose 30 mg/kg): ≥ 130%; inhibition in vivo at 100 mg/kg (DIO mouse; oral 100 mg/kg once daily for 2 weeks): ≥ 4%
4 | N=C(N)Nc1ccc(C(=O)Oc2ccc(COC(=O)N(CCOCCOCCOCCOCCN(C(=O)OCc3ccc(OC(=O)c4ccc(NC(=N)N)cc4)cc3)C(CC(=O)O)C(=O)O)C(CC(=O)O)C(=O)O)cc2)cc1 (stereo not shown) [10-(b), 3,18-bis(((4-((4-guanidinobenzoyl)oxy)benzyl)oxy)carbonyl)-6,9,12,15-tetraoxa-3,18-diazaicosane-1,2,19,20-tetracarboxylic acid trifluoroacetate] | – | ≥ 50 | ≥ 50 | – | ≥ 50 | ≥ 50 | – | – | – | response vs control in vivo at 79 mg/kg (HFD-fed mouse; single oral dose 79 mg/kg): ≥ 130%; inhibition in vivo at 87 mg/kg (DIO mouse; oral 87 mg/kg once daily for 2 weeks): ≥ 4%; AUC ([1]; 8 mg/kg): ≤ 100 ng·h/mL
5 | N=C(N)Nc1ccc(C(=O)Oc2ccc(COC(=O)N(Cc3cccc(C(=O)NCCOCCOCCOCCOCCNC(=O)c4cccc(CN(C(=O)OCc5ccc(OC(=O)c6ccc(NC(=N)N)cc6)cc5)[C@@H](CC(=O)O)C(=O)O)c4)c3)[C@@H](CC(=O)O)C(=O)O)cc2)cc1 [17-(b), (2S,2′S)-2,2′-(((5,8,11,14-tetraoxa-2,17-diazaoctadecane-1,18-dioyl)bis(3,1-phenylene))bis(methylene))bis((((4-((4-guanidinobenzoyloxy)benzyloxycarbonyl)azanediyl))disuccinic acid trifluoroacetate] | – | – | – | ≥ 50 | ≥ 50 | ≥ 50 | – | – | – | response vs control in vivo at 91 mg/kg (HFD-fed mouse; single oral dose 91 mg/kg): ≥ 130%; inhibition in vivo at 88 mg/kg (DIO mouse; oral 88 mg/kg once daily for 2 weeks): ≥ 4%; AUC ([1]; 9 mg/kg): ≤ 100 ng·h/mL; inhibition at 0.01 µM [2]: ≥ 50%; inhibition at 0.1 µM [2]: ≥ 50%
6 | Cl.N=C(N)Nc1ccc2c(c1)CCCOc1c(cccc1C(=O)N(CCOCCOCCN(C(=O)c1cccc3c1OCCCc1cc(NC(=N)N)ccc1C(=O)O3)[C@@H](CC(=O)O)C(=O)O)[C@@H](CC(=O)O)C(=O)O)OC2=O [20-(c), (2S,13S)-3,12-bis(10-guanidino-13-oxo-6,7,8,13-tetrahydrodibenzo[b,f][1,4]dioxecin-4-carbonyl)-6,9-dioxa-3,12-diazatetradecane-1,2,13,14-tetracarboxylic acid hydrochloride] | – | – | – | – | – | – | – | – | – | AUC (in vivo): ≤ 100 ng·h/mL
7 | N=C(N)Nc1ccc2c(c1)CCCOc1c(cccc1C(=O)N(CCOCCN(C(=O)c1cccc3c1OCCCc1cc(NC(=N)N)ccc1C(=O)O3)[C@@H](CC(=O)O)C(=O)O)[C@@H](CC(=O)O)C(=O)O)OC2=O [26-(b), (2S,2′S)-2,2′-((oxybis(ethane-2,1-diyl))bis((10-guanidino-13-oxo-6,7,8,13-tetrahydrodibenzo[b,f][1,4]dioxecin-4-carbonyl)azanediyl))disuccinic acid] | ≥ 50 | ≥ 50 | – | ≥ 50 | ≥ 50 | – | ≤ 100 | ≥ 130 | ≥ 4 | –
8 | N=C(N)Nc1ccc2c(c1)CCCOc1c(cccc1C(=O)N(CCOCCOCCOCCN(C(=O)c1cccc3c1OCCCc1cc(NC(=N)N)ccc1C(=O)O3)[C@@H](CC(=O)O)C(=O)O)[C@@H](CC(=O)O)C(=O)O)OC2=O [27-(b), (2S,165)-3,15-bis(10-guanidino-13-oxo-6,7,8,13-tetrahydrodibenzo[b,f][1,4]dioxecin-4-carbonyl)-6,9,12-trioxa-3,15-diazaheptadecane-1,2,16,17-tetracarboxylic acid] | ≥ 50 | ≥ 50 | ≥ 50 | – | ≥ 50 | ≥ 50 | – | ≥ 130 | ≥ 4 | –
9 | N=C(N)Nc1ccc2c(c1)CCCOc1c(cccc1C(=O)N(Cc1cccc(-c3cccc(CN(C(=O)c4cccc5c4OCCCc4cc(NC(=N)N)ccc4C(=O)O5)[C@@H](CC(=O)O)C(=O)O)c3)c1)[C@@H](CC(=O)O)C(=O)O)OC2=O [28-(c)] | ≥ 50 | ≥ 50 | ≥ 50 | – | ≥ 50 | ≥ 50 | ≤ 100 | ≥ 130 | ≥ 4 | –
10 | Cl.N=C(N)Nc1ccc2c(c1)CCCOc1c(cccc1C(=O)N(Cc1cc(OCCOCCOc3cc(CN(C(=O)c4cccc5c4OCCCc4cc(NC(=N)N)ccc4C(=O)O5)[C@@H](CC(=O)O)C(=O)O)cc(C(=O)O)c3)cc(C(=O)O)c1)[C@@H](CC(=O)O)C(=O)O)OC2=O [29-(c), (2S,2′S)-2,2′-(((((oxybis(ethane-2,1-diyl))bis(oxy))bis(3-carboxy-5,1-phenylene))bis(methylene))bis((10-guanidino-13-oxo-6,7,8,13-tetrahydrodibenzo[b,f][1,4]dioxecin-4-carbonyl)azanediyl))disuccinic acid hydrochloride] | ≥ 50 | ≥ 50 | ≥ 50 | – | – | ≥ 50 | ≤ 100 | ≥ 130 | ≥ 4 | –
